Measured values: the kinase profiling compilation of Christmann-Franck et al. (2016)

Key:
Assay in all cases: radiometric filter-binding kinase assay
[1] = system: AKT2 (human), P31751 [S474D]
AURKA (human) = AURKA (human) (UniProt O14965)
AURKB (human) = AURKB (human) (UniProt Q96GD4)
CHEK1 (human) = CHEK1 (human) (UniProt O14757)
CSNK1D (human) = CSNK1D (human) (UniProt P48730)
EEF2K (human) = EEF2K (human) (UniProt O00418)
EPHB1 (human) = EPHB1 (human) (UniProt P54762)
EPHB4 (human) = EPHB4 (human) (UniProt P54760)
Sequence of EPHB4 (human) (P54760 whole entry, looked up): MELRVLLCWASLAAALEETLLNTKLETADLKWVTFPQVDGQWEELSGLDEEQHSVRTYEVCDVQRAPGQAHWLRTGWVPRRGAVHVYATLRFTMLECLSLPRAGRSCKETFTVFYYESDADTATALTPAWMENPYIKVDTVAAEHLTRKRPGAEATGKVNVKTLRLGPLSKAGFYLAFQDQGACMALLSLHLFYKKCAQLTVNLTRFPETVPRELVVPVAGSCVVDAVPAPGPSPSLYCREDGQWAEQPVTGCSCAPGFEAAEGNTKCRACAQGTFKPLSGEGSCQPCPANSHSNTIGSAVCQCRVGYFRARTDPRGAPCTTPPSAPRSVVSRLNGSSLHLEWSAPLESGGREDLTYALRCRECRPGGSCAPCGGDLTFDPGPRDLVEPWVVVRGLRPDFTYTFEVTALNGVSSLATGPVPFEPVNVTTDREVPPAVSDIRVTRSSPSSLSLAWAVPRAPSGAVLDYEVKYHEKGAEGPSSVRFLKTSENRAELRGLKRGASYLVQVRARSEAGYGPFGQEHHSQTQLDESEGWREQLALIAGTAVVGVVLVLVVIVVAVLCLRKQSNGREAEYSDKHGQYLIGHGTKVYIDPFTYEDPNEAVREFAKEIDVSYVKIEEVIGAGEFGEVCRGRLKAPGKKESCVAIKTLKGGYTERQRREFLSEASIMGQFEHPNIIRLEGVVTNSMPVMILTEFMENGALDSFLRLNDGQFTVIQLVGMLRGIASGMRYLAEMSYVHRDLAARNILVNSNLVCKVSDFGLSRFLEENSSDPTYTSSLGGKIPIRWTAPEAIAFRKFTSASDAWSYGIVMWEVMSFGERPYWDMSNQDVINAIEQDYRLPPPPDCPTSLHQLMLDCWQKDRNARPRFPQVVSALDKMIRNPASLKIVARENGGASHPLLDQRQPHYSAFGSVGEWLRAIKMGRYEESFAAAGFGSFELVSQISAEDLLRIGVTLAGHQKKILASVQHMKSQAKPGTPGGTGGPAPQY

FGFR1 (human) = FGFR1 (human) (UniProt P11362)
FLT1 (human) = FLT1 (human) (UniProt P17948)
GCK (human) = GCK (human) (UniProt Q12851)
GSK3B (human) = GSK3B (human) (UniProt P49841)
HIPK1 (human) = HIPK1 (human) (UniProt Q86Z02)
HIPK2 (human) = HIPK2 (human) (UniProt Q9H2X6)
IGF1R (human) = IGF1R (human) (UniProt P08069)
MAP2K2 (human) = MAP2K2 (human) (UniProt P36507)
MAP3K1 (human) = MAP3K1 (human) (UniProt Q13233)
MAP3K5 (human) = MAP3K5 (human) (UniProt Q99683)
Sequence of MAP3K5 (human) (Q99683 whole entry, looked up): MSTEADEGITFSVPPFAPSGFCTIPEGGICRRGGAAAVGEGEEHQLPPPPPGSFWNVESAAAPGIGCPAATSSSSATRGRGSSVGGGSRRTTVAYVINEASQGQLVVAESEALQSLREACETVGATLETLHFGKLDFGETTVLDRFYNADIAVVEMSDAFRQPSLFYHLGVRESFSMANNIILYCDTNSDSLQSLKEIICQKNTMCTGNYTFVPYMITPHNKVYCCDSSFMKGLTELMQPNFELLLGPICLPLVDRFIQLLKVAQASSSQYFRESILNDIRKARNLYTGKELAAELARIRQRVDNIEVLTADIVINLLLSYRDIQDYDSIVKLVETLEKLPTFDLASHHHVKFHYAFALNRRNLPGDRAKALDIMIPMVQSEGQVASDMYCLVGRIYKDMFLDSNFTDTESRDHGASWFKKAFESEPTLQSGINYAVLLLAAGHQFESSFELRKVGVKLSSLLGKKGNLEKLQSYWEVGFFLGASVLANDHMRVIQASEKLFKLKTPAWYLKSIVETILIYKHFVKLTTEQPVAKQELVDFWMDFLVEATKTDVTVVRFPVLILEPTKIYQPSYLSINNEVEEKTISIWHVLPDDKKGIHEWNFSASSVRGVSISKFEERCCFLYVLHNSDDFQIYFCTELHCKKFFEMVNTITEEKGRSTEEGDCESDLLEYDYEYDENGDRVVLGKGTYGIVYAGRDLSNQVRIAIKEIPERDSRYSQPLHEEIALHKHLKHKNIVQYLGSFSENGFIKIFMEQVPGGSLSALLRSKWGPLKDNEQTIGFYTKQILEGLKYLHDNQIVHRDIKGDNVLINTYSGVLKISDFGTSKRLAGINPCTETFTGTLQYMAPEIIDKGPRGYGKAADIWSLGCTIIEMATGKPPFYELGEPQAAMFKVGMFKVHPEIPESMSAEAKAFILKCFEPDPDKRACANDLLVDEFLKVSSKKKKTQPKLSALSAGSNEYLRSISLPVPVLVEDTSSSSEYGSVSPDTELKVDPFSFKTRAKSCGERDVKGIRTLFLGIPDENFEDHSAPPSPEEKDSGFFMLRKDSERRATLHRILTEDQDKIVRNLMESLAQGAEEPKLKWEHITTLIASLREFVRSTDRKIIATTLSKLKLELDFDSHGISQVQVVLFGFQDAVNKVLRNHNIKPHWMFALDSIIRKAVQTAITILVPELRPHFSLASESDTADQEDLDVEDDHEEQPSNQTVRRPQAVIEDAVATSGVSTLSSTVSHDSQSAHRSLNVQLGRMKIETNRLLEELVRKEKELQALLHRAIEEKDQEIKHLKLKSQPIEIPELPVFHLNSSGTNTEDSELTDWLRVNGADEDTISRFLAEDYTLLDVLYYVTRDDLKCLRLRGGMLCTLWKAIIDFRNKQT

MAP3K9 (human) = MAP3K9 (human) (UniProt P80192)
MAPK1 (human) = MAPK1 (human) (UniProt P28482)
Sequence of MAPK1 (human) (P28482 whole entry, looked up): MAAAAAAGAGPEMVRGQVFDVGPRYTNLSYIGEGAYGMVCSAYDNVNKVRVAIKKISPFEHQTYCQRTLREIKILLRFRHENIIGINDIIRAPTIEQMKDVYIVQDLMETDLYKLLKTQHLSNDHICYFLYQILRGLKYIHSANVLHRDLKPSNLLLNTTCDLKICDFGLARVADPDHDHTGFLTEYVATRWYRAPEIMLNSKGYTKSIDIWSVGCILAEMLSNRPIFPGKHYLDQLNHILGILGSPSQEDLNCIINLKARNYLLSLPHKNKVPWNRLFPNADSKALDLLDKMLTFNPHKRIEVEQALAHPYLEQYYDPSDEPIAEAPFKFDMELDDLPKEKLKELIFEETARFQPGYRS

MAPK10 (human) = MAPK10 (human) (UniProt P53779)
MAPK13 (human) = MAPK13 (human) (UniProt O15264)
MAPK9 (human) = MAPK9 (human) (UniProt P45984)
MARK4 (human) = MARK4 (human) (UniProt Q96L34)
MELK (human) = MELK (human) (UniProt Q14680)
MYLK (human) = MYLK (human) (UniProt Q15746)
[2] = system: PAK2 (human), Q13177 [T402E]
PAK6 (human) = PAK6 (human) (UniProt Q9NQU5)
Sequence of PAK6 (human) (Q9NQU5 whole entry, looked up): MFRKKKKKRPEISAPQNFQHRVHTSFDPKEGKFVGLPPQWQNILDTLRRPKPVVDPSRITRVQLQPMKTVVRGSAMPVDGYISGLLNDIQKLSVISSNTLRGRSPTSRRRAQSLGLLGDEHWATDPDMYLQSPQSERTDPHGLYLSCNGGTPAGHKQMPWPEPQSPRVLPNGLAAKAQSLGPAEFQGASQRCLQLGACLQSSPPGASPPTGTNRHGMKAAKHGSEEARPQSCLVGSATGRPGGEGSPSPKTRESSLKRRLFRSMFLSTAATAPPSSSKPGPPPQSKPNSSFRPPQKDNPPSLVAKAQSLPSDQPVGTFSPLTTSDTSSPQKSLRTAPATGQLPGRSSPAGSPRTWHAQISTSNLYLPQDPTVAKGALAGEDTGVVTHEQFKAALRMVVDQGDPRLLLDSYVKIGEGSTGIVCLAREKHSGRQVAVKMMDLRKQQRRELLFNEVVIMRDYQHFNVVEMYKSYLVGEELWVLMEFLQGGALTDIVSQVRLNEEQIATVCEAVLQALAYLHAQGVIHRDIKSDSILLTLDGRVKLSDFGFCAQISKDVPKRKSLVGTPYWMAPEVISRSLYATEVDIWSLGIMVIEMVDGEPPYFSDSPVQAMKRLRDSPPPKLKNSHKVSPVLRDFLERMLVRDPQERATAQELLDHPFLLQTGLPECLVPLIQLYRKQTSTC

PKN2 (human) = PKN2 (human) (UniProt Q16513)
PRKCZ (human) = PRKCZ (human) (UniProt Q05513)
SRC (human) = SRC (human) (UniProt P12931)
[3] = biological target: STK11 CAB39 STRADA (human) (UniProt Q9Y376+Q7RTN6+Q15831)
SYK (human) = SYK (human) (UniProt P43405)
TAOK1 (human) = TAOK1 (human) (UniProt Q7L7X3)
TTK (human) = TTK (human) (UniProt P33981)
YES1 (human) = YES1 (human) (UniProt P07947)
Sequence of YES1 (human) (P07947 whole entry, looked up): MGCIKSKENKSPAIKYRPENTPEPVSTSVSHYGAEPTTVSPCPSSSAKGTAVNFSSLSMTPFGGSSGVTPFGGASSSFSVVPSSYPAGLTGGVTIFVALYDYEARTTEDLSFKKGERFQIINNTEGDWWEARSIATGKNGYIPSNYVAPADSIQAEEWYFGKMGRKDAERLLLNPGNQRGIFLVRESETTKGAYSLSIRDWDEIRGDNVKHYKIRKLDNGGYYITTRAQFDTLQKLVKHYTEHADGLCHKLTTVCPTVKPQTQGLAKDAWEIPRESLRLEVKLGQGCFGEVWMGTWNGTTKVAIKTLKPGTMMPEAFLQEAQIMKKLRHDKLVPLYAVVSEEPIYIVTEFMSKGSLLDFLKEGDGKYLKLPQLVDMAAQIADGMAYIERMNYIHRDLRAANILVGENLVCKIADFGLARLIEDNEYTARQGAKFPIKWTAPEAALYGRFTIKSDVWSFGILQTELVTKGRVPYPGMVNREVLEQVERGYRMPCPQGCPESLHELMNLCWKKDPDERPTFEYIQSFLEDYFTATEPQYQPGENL

Sequence of EEF2K (human) (O00418 whole entry, looked up): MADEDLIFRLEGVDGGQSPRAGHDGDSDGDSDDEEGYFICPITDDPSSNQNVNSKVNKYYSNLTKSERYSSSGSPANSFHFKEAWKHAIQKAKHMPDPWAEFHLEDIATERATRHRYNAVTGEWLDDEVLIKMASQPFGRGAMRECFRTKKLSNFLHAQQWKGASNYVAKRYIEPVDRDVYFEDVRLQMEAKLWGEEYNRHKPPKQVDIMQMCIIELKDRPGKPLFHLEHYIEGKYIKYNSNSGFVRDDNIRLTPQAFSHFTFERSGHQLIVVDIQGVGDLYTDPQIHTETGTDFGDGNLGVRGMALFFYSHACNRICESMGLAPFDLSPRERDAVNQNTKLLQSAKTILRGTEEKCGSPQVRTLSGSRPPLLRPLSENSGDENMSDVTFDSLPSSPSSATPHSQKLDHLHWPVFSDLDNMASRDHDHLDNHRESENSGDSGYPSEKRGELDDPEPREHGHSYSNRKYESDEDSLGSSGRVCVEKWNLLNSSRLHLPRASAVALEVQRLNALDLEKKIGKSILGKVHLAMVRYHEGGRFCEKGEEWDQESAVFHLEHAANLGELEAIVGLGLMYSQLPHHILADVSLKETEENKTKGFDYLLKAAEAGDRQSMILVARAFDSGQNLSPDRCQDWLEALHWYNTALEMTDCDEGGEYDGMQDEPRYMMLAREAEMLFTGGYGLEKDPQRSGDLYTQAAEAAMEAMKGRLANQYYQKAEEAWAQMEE
Sequence of AURKA (human) (O14965 whole entry, looked up): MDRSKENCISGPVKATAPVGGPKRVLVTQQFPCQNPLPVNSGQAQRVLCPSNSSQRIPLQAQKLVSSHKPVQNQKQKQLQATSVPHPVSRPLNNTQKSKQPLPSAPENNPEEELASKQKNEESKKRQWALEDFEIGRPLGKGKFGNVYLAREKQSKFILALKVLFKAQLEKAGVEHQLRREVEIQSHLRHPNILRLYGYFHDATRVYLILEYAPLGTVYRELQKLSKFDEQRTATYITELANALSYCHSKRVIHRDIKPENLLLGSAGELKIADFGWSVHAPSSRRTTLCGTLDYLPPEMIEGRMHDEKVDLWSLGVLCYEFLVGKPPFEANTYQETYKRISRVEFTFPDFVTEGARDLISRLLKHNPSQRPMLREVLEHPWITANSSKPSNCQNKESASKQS

## C=C1C(=O)OC2C1CC/C(C)=C/CCC1(C)OC21 (stereo not drawn)
[1]; compound 1.0 µM
  residual activity: 101%
[1]; compound 5.0 µM
  residual activity: 92%
AURKA (human); compound 5.0 µM
  residual activity: 115%
AURKB (human); compound 1.0 µM
  residual activity: 106%
AURKB (human); compound 5.0 µM
  residual activity: 99%
CHEK1 (human); compound 1.0 µM
  residual activity: 123%
CHEK1 (human); compound 5.0 µM
  residual activity: 98%
CSNK1D (human); compound 1.0 µM
  residual activity: 99%
EEF2K (human); compound 1.0 µM
  residual activity: 107%
EEF2K (human); compound 5.0 µM
  residual activity: 91%
EPHB1 (human); compound 1.0 µM
  residual activity: 103%
EPHB1 (human); compound 5.0 µM
  residual activity: 115%
EPHB4 (human); compound 1.0 µM
  residual activity: 124%
FGFR1 (human); compound 1.0 µM
  residual activity: 106%
FGFR1 (human); compound 5.0 µM
  residual activity: 99%
FLT1 (human); compound 1.0 µM
  residual activity: 109%
FLT1 (human); compound 5.0 µM
  residual activity: 98%
GCK (human); compound 1.0 µM
  residual activity: 116%
GCK (human); compound 5.0 µM
  residual activity: 98%
GSK3B (human); compound 1.0 µM
  residual activity: 106%
GSK3B (human); compound 5.0 µM
  residual activity: 105%
HIPK1 (human); compound 1.0 µM
  residual activity: 114%
HIPK1 (human); compound 5.0 µM
  residual activity: 106%
HIPK2 (human); compound 1.0 µM
  residual activity: 124%
HIPK2 (human); compound 5.0 µM
  residual activity: 113%
IGF1R (human); compound 1.0 µM
  residual activity: 120%
IGF1R (human); compound 5.0 µM
  residual activity: 109%
MAP2K2 (human); compound 5.0 µM
  residual activity: 109%
MAP3K1 (human); compound 1.0 µM
  residual activity: 112%
MAP3K1 (human); compound 5.0 µM
  residual activity: 120%
MAP3K5 (human); compound 1.0 µM
  residual activity: 98%
MAP3K5 (human); compound 5.0 µM
  residual activity: 125%
MAP3K9 (human); compound 1.0 µM
  residual activity: 117%
MAP3K9 (human); compound 5.0 µM
  residual activity: 95%
MAPK1 (human); compound 1.0 µM
  residual activity: 90%
MAPK1 (human); compound 5.0 µM
  residual activity: 83%
MAPK10 (human); compound 1.0 µM
  residual activity: 115%
MAPK10 (human); compound 5.0 µM
  residual activity: 134%
MAPK13 (human); compound 1.0 µM
  residual activity: 115%
MAPK13 (human); compound 5.0 µM
  residual activity: 113%
MAPK9 (human); compound 1.0 µM
  residual activity: 114%
MAPK9 (human); compound 5.0 µM
  residual activity: 110%
MARK4 (human); compound 1.0 µM
  residual activity: 111%
MARK4 (human); compound 5.0 µM
  residual activity: 93%
MELK (human); compound 1.0 µM
  residual activity: 138%
MELK (human); compound 5.0 µM
  residual activity: 100%
MYLK (human); compound 1.0 µM
  residual activity: 123%
MYLK (human); compound 5.0 µM
  residual activity: 113%
[2]; compound 1.0 µM
  residual activity: 102%
[2]; compound 5.0 µM
  residual activity: 103%
PAK6 (human); compound 1.0 µM
  residual activity: 119%
PAK6 (human); compound 5.0 µM
  residual activity: 115%
PKN2 (human); compound 1.0 µM
  residual activity: 106%
PKN2 (human); compound 5.0 µM
  residual activity: 102%
PRKCZ (human); compound 1.0 µM
  residual activity: 117%
PRKCZ (human); compound 5.0 µM
  residual activity: 98%
SRC (human); compound 1.0 µM
  residual activity: 110%
SRC (human); compound 5.0 µM
  residual activity: 111%
[3]; compound 1.0 µM
  residual activity: 132%
[3]; compound 5.0 µM
  residual activity: 106%
SYK (human); compound 1.0 µM
  residual activity: 102%
SYK (human); compound 5.0 µM
  residual activity: 105%
TAOK1 (human); compound 5.0 µM
  residual activity: 103%
TTK (human); compound 1.0 µM
  residual activity: 109%
TTK (human); compound 5.0 µM
  residual activity: 106%
YES1 (human); compound 5.0 µM
  residual activity: 109%

## FC(F)(F)c1ccc(-c2ccc(Oc3cncc4sc(-c5nn[nH]n5)cc34)cc2)cc1
[1]; compound 1.0 µM
  residual activity: 106%
[1]; compound 10.0 µM
  residual activity: 98%
AURKA (human); compound 1.0 µM
  residual activity: 108%
AURKA (human); compound 10.0 µM
  residual activity: 63%
AURKB (human); compound 1.0 µM
  residual activity: 81%
AURKB (human); compound 10.0 µM
  residual activity: 40%
CHEK1 (human); compound 1.0 µM
  residual activity: 118%
CHEK1 (human); compound 10.0 µM
  residual activity: 65%
CSNK1D (human); compound 1.0 µM
  residual activity: 86%
CSNK1D (human); compound 10.0 µM
  residual activity: 41%
EEF2K (human); compound 1.0 µM
  residual activity: 106%
EEF2K (human); compound 10.0 µM
  residual activity: 80%
EPHB1 (human); compound 1.0 µM
  residual activity: 108%
EPHB1 (human); compound 10.0 µM
  residual activity: 100%
EPHB4 (human); compound 1.0 µM
  residual activity: 109%
EPHB4 (human); compound 10.0 µM
  residual activity: 110%
FGFR1 (human); compound 1.0 µM
  residual activity: 102%
FGFR1 (human); compound 10.0 µM
  residual activity: 76%
FLT1 (human); compound 1.0 µM
  residual activity: 96%
FLT1 (human); compound 10.0 µM
  residual activity: 29%
GCK (human); compound 1.0 µM
  residual activity: 68%
GCK (human); compound 10.0 µM
  residual activity: 17%
GSK3B (human); compound 1.0 µM
  residual activity: 63%
GSK3B (human); compound 10.0 µM
  residual activity: 14%
HIPK1 (human); compound 1.0 µM
  residual activity: 65%
HIPK1 (human); compound 10.0 µM
  residual activity: 12%
HIPK2 (human); compound 1.0 µM
  residual activity: 22%
HIPK2 (human); compound 10.0 µM
  residual activity: 11%
IGF1R (human); compound 1.0 µM
  residual activity: 74%
IGF1R (human); compound 10.0 µM
  residual activity: 74%
MAP2K2 (human); compound 1.0 µM
  residual activity: 87%
MAP2K2 (human); compound 10.0 µM
  residual activity: 70%
MAP3K1 (human); compound 1.0 µM
  residual activity: 109%
MAP3K1 (human); compound 10.0 µM
  residual activity: 93%
MAP3K5 (human); compound 1.0 µM
  residual activity: 95%
MAP3K5 (human); compound 10.0 µM
  residual activity: 72%
MAP3K9 (human); compound 1.0 µM
  residual activity: 126%
MAP3K9 (human); compound 10.0 µM
  residual activity: 91%
MAPK1 (human); compound 1.0 µM
  residual activity: 114%
MAPK1 (human); compound 10.0 µM
  residual activity: 95%
MAPK10 (human); compound 1.0 µM
  residual activity: 85%
MAPK10 (human); compound 10.0 µM
  residual activity: 96%
MAPK13 (human); compound 1.0 µM
  residual activity: 113%
MAPK13 (human); compound 10.0 µM
  residual activity: 77%
MAPK9 (human); compound 1.0 µM
  residual activity: 113%
MAPK9 (human); compound 10.0 µM
  residual activity: 100%
MARK4 (human); compound 1.0 µM
  residual activity: 106%
MARK4 (human); compound 10.0 µM
  residual activity: 97%
MELK (human); compound 1.0 µM
  residual activity: 81%
MELK (human); compound 10.0 µM
  residual activity: 19%
MYLK (human); compound 1.0 µM
  residual activity: 94%
MYLK (human); compound 10.0 µM
  residual activity: 42%
[2]; compound 1.0 µM
  residual activity: 109%
[2]; compound 10.0 µM
  residual activity: 101%
PAK6 (human); compound 1.0 µM
  residual activity: 121%
PAK6 (human); compound 10.0 µM
  residual activity: 110%
PKN2 (human); compound 1.0 µM
  residual activity: 98%
PKN2 (human); compound 10.0 µM
  residual activity: 54%
PRKCZ (human); compound 1.0 µM
  residual activity: 126%
PRKCZ (human); compound 10.0 µM
  residual activity: 60%
SRC (human); compound 1.0 µM
  residual activity: 108%
SRC (human); compound 10.0 µM
  residual activity: 95%
[3]; compound 1.0 µM
  residual activity: 85%
[3]; compound 10.0 µM
  residual activity: 64%
SYK (human); compound 1.0 µM
  residual activity: 114%
SYK (human); compound 10.0 µM
  residual activity: 102%
TAOK1 (human); compound 1.0 µM
  residual activity: 65%
TAOK1 (human); compound 10.0 µM
  residual activity: 30%
TTK (human); compound 1.0 µM
  residual activity: 83%
TTK (human); compound 10.0 µM
  residual activity: 63%
YES1 (human); compound 1.0 µM
  residual activity: 100%
YES1 (human); compound 10.0 µM
  residual activity: 87%
